# Reference: PubChem BioAssay AID248 (DTP/NCI, 2004)
# “And” between values parts separate entries of the source, which are not always exact repeats. Equal values may be shown once. Toxic doses and inconclusive results are not listed.
# Tested on: L1210 leukemia ip in BDF1 mice, survival T/C
# Assay: NCI In Vivo Anticancer Drug Screen. Data for tumor model L1210 Leukemia (intraperitoneal) in B6D2F1 (BDF1) mice
# Conditions: endpoint: mean survival time, higher = longer survival
# Outline: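 In this screen, tumor-bearing mice given compound are compared to those given vehicle, and their survival values are reported as a treated-to-control quotient.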
# [1] = dose: 25.0 mg/kg/injection, schedule: Q01DX001 (ip), vehicle: carboxymethylcellulose (CMC)
# [2] = dose: 50.0 mg/kg/injection, schedule: Q01DX009 (ip), vehicle: saline with Tween-80
# [3] = dose: 100.0 mg/kg/injection, schedule: Q01DX009 (ip), vehicle: saline with Tween-80
# [4] = dose: 100.0 mg/kg/injection, schedule: Q01DX009 (ip), vehicle: Klucel (hydroxypropylcellulose) (HPC)
# [5] = dose: 100.0 mg/kg/injection, schedule: Q04DX003 (ip), vehicle: Klucel (hydroxypropylcellulose) (HPC)
# [6] = dose: 200.0 mg/kg/injection, schedule: Q01DX009 (ip), vehicle: Klucel (hydroxypropylcellulose) (HPC)
# [7] = dose: 200.0 mg/kg/injection, schedule: Q04DX003 (ip), vehicle: Klucel (hydroxypropylcellulose) (HPC)
# [8] = dose: 400.0 mg/kg/injection, schedule: Q01DX009 (ip), vehicle: Klucel (hydroxypropylcellulose) (HPC)
# [9] = dose: 400.0 mg/kg/injection, schedule: Q04DX003 (ip), vehicle: Klucel (hydroxypropylcellulose) (HPC)
smiles,measurement,setting,value
CCSc1ncc(Br)c(Sc2nc(N)nc3nc[nH]c23)n1,T/C,"dose: 1.5 mg/kg/injection, schedule: Q01DX Z (ip), vehicle: carboxymethylcellulose (CMC)",107 % of control
same,T/C,"dose: 12.0 mg/kg/injection, schedule: Q01DX Z (ip), vehicle: carboxymethylcellulose (CMC)",150 % of control
same,T/C,[1],121 % of control
same,T/C,"dose: 25.0 mg/kg/injection, schedule: Q01DX Z (ip), vehicle: methylcellulose (MC)",86 % of control
same,T/C,"dose: 200.0 mg/kg/injection, schedule: Q01DX001 (ip), vehicle: carboxymethylcellulose (CMC)",116 % of control
C1=Nc2ccccc2/C1=C/C=C/c1ccccc1,T/C,"dose: 100.0 mg/kg/injection, schedule: Q04DX002 (ip), vehicle: gum acacia",88 % of control
same,T/C,"dose: 200.0 mg/kg/injection, schedule: Q04DX002 (ip), vehicle: gum acacia",95 % of control
same,T/C,"dose: 400.0 mg/kg/injection, schedule: Q04DX002 (ip), vehicle: gum acacia",95 % of control
O=C(O)c1cc(-c2cccc(C(F)(F)F)c2)nc2c(C(F)(F)F)cccc12,T/C,[2],96 % of control
same,T/C,[3],96 % of control
same,T/C,"dose: 100.0 mg/kg/injection, schedule: Q04DX003 (ip), vehicle: saline with Tween-80",101 % of control
same,T/C,"dose: 200.0 mg/kg/injection, schedule: Q04DX003 (ip), vehicle: saline with Tween-80",105 % of control
N#CCCC1C2CCC(C2)C1C#N (stereo not given),T/C,"dose: 3.0 mg/kg/injection, schedule: Q01DX009 (ip), vehicle: Klucel (hydroxypropylcellulose) (HPC)",96 % of control
same,T/C,"dose: 3.0 mg/kg/injection, schedule: Q04DX003 (ip), vehicle: Klucel (hydroxypropylcellulose) (HPC)",96 % of control
same,T/C,"dose: 6.0 mg/kg/injection, schedule: Q01DX009 (ip), vehicle: Klucel (hydroxypropylcellulose) (HPC)",96 % of control
same,T/C,"dose: 6.0 mg/kg/injection, schedule: Q04DX003 (ip), vehicle: Klucel (hydroxypropylcellulose) (HPC)",98 % of control
same,T/C,"dose: 12.0 mg/kg/injection, schedule: Q01DX009 (ip), vehicle: Klucel (hydroxypropylcellulose) (HPC)",98 % of control
same,T/C,"dose: 12.0 mg/kg/injection, schedule: Q04DX003 (ip), vehicle: Klucel (hydroxypropylcellulose) (HPC)",98 % of control
same,T/C,"dose: 12.5 mg/kg/injection, schedule: Q04DX003 (ip), vehicle: Klucel (hydroxypropylcellulose) (HPC)",105 % of control
Cc1ccc(NC(=O)Nc2ccccc2Cl)cc1Cl,T/C,[4],100 % of control
same,T/C,[5],112 % of control
same,T/C,[6],98 % of control
same,T/C,[7],96 % of control
same,T/C,[8],100 % of control
same,T/C,[9],94 % of control
CC1CCCC/C1=N/NC(=O)c1ccccc1 (stereo not given),T/C,[2],95 % of control
same,T/C,[3],110 % of control
same,T/C,"dose: 200.0 mg/kg/injection, schedule: Q01DX009 (ip), vehicle: saline with Tween-80",108 % of control
O=C1CC2CCCCN2C2=C1CCCC2 (stereo not given),T/C,"dose: 25.0 mg/kg/injection, schedule: Q01DX009 (ip), vehicle: alcohol",101 % of control
same,T/C,"dose: 50.0 mg/kg/injection, schedule: Q01DX009 (ip), vehicle: alcohol",98 % of control
same,T/C,"dose: 100.0 mg/kg/injection, schedule: Q01DX009 (ip), vehicle: alcohol",93 % of control
O=S(=O)(Cc1cccc(Cl)c1)c1ccccc1,T/C,"dose: 100.0 mg/kg/injection, schedule: Q04DX002 (ip), vehicle: Klucel (hydroxypropylcellulose) (HPC)",96 % of control
same,T/C,"dose: 200.0 mg/kg/injection, schedule: Q04DX002 (ip), vehicle: Klucel (hydroxypropylcellulose) (HPC)",107 % of control
same,T/C,"dose: 400.0 mg/kg/injection, schedule: Q04DX002 (ip), vehicle: Klucel (hydroxypropylcellulose) (HPC)",104 % of control
Cc1cccc(NC(=O)N(CCCl)N=O)c1,T/C,"dose: 2.6 mg/kg/injection, schedule: Q01DX009 (ip), vehicle: carboxymethylcellulose (CMC)",163 % of control
same,T/C,"dose: 4.0 mg/kg/injection, schedule: Q01DX009 (ip), vehicle: carboxymethylcellulose (CMC)",164 % of control and 197 % of control
same,T/C,"dose: 6.0 mg/kg/injection, schedule: Q01DX009 (ip), vehicle: carboxymethylcellulose (CMC)",150 % of control and 192 % of control
same,T/C,[1],101 % of control
same,T/C,"dose: 50.0 mg/kg/injection, schedule: Q01DX001 (ip), vehicle: carboxymethylcellulose (CMC)",86 % of control
same,T/C,"dose: 100.0 mg/kg/injection, schedule: Q01DX001 (ip), vehicle: carboxymethylcellulose (CMC)",86 % of control
Nc1nc(N)c2cc(CNc3ccc(Cl)c(C(=O)NC(CC(=O)O)C(=O)O)c3)cnc2n1 (stereo not given),T/C,"dose: 100.0 mg/kg/injection, schedule: Q01DX009 (ip), vehicle: saline",95 % of control
same,T/C,"dose: 100.0 mg/kg/injection, schedule: Q04DX003 (ip), vehicle: saline",106 % of control
same,T/C,"dose: 200.0 mg/kg/injection, schedule: Q01DX009 (ip), vehicle: saline",94 % of control
same,T/C,"dose: 200.0 mg/kg/injection, schedule: Q04DX003 (ip), vehicle: saline",93 % of control
same,T/C,"dose: 400.0 mg/kg/injection, schedule: Q01DX009 (ip), vehicle: saline",89 % of control
same,T/C,"dose: 400.0 mg/kg/injection, schedule: Q04DX003 (ip), vehicle: saline",97 % of control
CC(=O)OCC(=O)[C@@]1(O)CC[C@H]2[C@@H]3CCC4=CC(=O)C=C[C@]4(C)[C@H]3[C@@H](O)C[C@@]21C,T/C,"dose: 50.0 mg/kg/injection, schedule: Q04DX003 (sc), vehicle: steriod suspending solution",97 % of control
same,T/C,"dose: 100.0 mg/kg/injection, schedule: Q04DX003 (sc), vehicle: steriod suspending solution",94 % of control
same,T/C,"dose: 200.0 mg/kg/injection, schedule: Q04DX003 (sc), vehicle: steriod suspending solution",96 % of control
same,T/C,"dose: 400.0 mg/kg/injection, schedule: Q04DX003 (sc), vehicle: steriod suspending solution",106 % of control
NOCc1cc2c(cc1Cl)OCO2,T/C,"dose: 100.0 mg/kg/injection, schedule: Q01DX001 (ip), vehicle: Klucel (hydroxypropylcellulose) (HPC)",94 % of control
same,T/C,[4],94 % of control
same,T/C,[5],90 % of control
same,T/C,"dose: 200.0 mg/kg/injection, schedule: Q01DX001 (ip), vehicle: Klucel (hydroxypropylcellulose) (HPC)",88 % of control
same,T/C,[6],92 % of control
same,T/C,[7],96 % of control
same,T/C,"dose: 400.0 mg/kg/injection, schedule: Q01DX001 (ip), vehicle: Klucel (hydroxypropylcellulose) (HPC)",100 % of control
same,T/C,[8],86 % of control
same,T/C,[9],96 % of control
NC(=S)N/N=C(\c1ccc(F)cc1)C1CC1,T/C,"dose: 1.0 mg/kg/injection, schedule: Q01DX Z (ip), vehicle: methylcellulose (MC)",92 % of control
same,T/C,"dose: 2.0 mg/kg/injection, schedule: Q01DX Z (ip), vehicle: methylcellulose (MC)",101 % of control
same,T/C,"dose: 4.0 mg/kg/injection, schedule: Q01DX Z (ip), vehicle: methylcellulose (MC)",97 % of control
same,T/C,"dose: 8.0 mg/kg/injection, schedule: Q01DX Z (ip), vehicle: methylcellulose (MC)",93 % of control
same,T/C,"dose: 8.0 mg/kg/injection, schedule: Q01DX Z (oral), vehicle: methylcellulose (MC)",100 % of control
O=[N+]([O-])c1ccc(N/N=C/c2ccc(N(CCO)CCO)cc2)c([N+](=O)[O-])c1,T/C,"dose: 25.0 mg/kg/injection, schedule: Q01DX001 (ip), vehicle: saline with Tween-80",88 % of control
same,T/C,"dose: 50.0 mg/kg/injection, schedule: Q01DX001 (ip), vehicle: saline with Tween-80",90 % of control
same,T/C,"dose: 100.0 mg/kg/injection, schedule: Q01DX001 (ip), vehicle: saline with Tween-80",98 % of control
N#C/C(=C\c1ccccn1)c1ccc(Cl)cc1,T/C,"dose: 100.0 mg/kg/injection, schedule: Q01DX001 (ip), vehicle: other",95 % of control
same,T/C,"dose: 200.0 mg/kg/injection, schedule: Q01DX001 (ip), vehicle: other",92 % of control
same,T/C,"dose: 400.0 mg/kg/injection, schedule: Q01DX001 (ip), vehicle: other",94 % of control
CCOC(=O)C(C1=NC(C)(C)CC(C)O1)C1CCCCC1 (stereo not given),T/C,"dose: 100.0 mg/kg/injection, schedule: Q04DX003 (ip), vehicle: saline sonified",115 % of control
same,T/C,"dose: 200.0 mg/kg/injection, schedule: Q04DX003 (ip), vehicle: saline sonified",102 % of control
same,T/C,"dose: 400.0 mg/kg/injection, schedule: Q04DX003 (ip), vehicle: saline sonified",108 % of control
CN(C)N=Nc1cccc(C(=O)O)c1,T/C,"dose: 50.0 mg/kg/injection, schedule: Q04DX002 (ip), vehicle: other",106 % of control
same,T/C,"dose: 100.0 mg/kg/injection, schedule: Q04DX002 (ip), vehicle: other",113 % of control
same,T/C,"dose: 200.0 mg/kg/injection, schedule: Q04DX002 (ip), vehicle: other",113 % of control
same,T/C,"dose: 400.0 mg/kg/injection, schedule: Q04DX002 (ip), vehicle: other",124 % of control
Cc1ccc(/C([O-])=C(\C(=S)Nc2cccc(C(F)(F)F)c2)[n+]2ccccc2)cc1,T/C,[4],103 % of control
same,T/C,[6],103 % of control
same,T/C,[8],94 % of control
